Key:
DC-SIGN CRD [1] = assay: 19F R2-filtered NMR reporter displacement assay transferred to DC-SIGN; type: binding; details: Ki Langerin compared to Ki DC-SIGN
Description: (§1) Langerin and DC-SIGN carbohydrate recognition domain. Expression and purification were conducted as previously published. Briefly, the monomeric ^15N-labeled Langerin and DC-SIGN carbohydrate recognition domains (CRDs) were expressed insolubly in E. coli BL21* (DE3) (Invitrogen). Following enzymatic cell lysis, inclusion bodies were harvested and subsequently solubilized. The sample was centrifuged and the Langerin and DC-SIGN CRDs were refolded overnight via rapid dilution. Next, the sample was dialyzed overnight, centrifuged and purified via StrepTactin affinity chromatography (Iba). After an additional dialysis step overnight, the sample was centrifuged and the buffer was exchanged to 25 mM HEPES with 150 mM NaCl at pH 7.0 using 7 kDa size-exclusion desalting columns (Thermo Scientific) for ^19F R2-filtered and ^15N HSQC NMR experiments. The concentration of Langerin and DC-SIGN CRDs was determined via UV spectroscopy (A280, 0.1%=3.19 and A280, 0.1%=2.98). Purity and monodispersity of Langerin and DC-SIGN CRD samples were analyzed via SDS PAGE and DLS.
(§2) General remarks. ^19F R2-filtered NMR experiments were conducted on a PremiumCompact 600 MHz spectrometer (Agilent). […] Apparent relaxation rates R2,obs for the reporter ligand were determined using the CPMG pulse sequence as previously published (Wamhoff, E. C. et al. (19)F Nmr-Guided Design of Glycomimetic Langerin Ligands. ACS Chem Biol, 11, 2407-13 (2016): Carr, H. Y. & Purcell, E. M. Effects of Diffusion on Free Precession in Nuclear Magnetic Resonance Experiments. Phys Rev, 94, 630-638 (1954); Meiboom, S. & Gill, D. Modified Spin-Echo Method for Measuring Nuclear Relaxation Times. Rev Sci Instrum 29, 688-691 (1958)).
(§3) Assay development for DC-SIGN. […] Briefly, the KD value and the relaxation rate in bound state R2,b were determined at five concentrations [L]T of reporter ligand 24 in three independent titration experiments. […]
(§4) Ki determination. Ki values were determined as previously published for Langerin (Wamhoff, E. C. et al. (19)F NMR-Guided Design of Glycomimetic Langerin Ligands. ACS Chem Biol 11, 2407-13 (2016)). […]

DC-SIGN CRD [2] = molecular target: T1, DC-SIGN CRD (Homo sapiens, UniProt Q9NNX6); assay: as above; type: binding; details: 19F R2-filtered NMR, DC-SIGN CRD 50 μM, pH 7.0, 25° C.
T1 construct: residues 205 to 404; TEV site (C); StreptagII (C); made in house; host or cells: E. coli BL21* (DE3)
T1 sequence (Q9NNX6 250-404): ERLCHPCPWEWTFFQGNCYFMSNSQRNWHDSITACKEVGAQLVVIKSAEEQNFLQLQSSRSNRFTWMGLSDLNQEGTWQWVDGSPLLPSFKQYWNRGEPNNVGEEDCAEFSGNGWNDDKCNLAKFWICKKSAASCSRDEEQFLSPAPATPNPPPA
Description: as §1, §2, §3, §4

specificity for DC-SIGN over Langerin (DC-SIGN CRD [1]): 3.7 fold
Ki (DC-SIGN CRD [2]): 2.7 ± 0.3 mM
SMILES: CC(=O)NCCO[C@H]1O[C@H](CO)[C@@H](O)[C@H](O)[C@@H]1O [Man analog 21]
